# Measured values published in PMC6364417, “Kinase inhibitor library screening identifies synergistic drug combinations effective in sensitive and resistant melanoma cells” (Journal of Experimental & Clinical Cancer Research : CR, 2019).
# Columns and labels:
# Assay in all cases: Kinase inhibitor library screening, PrestoBlue cell viability, 1 or 10 μM, 72 h
# [1] = system: 501Mel cells (parental); settings: 501Mel Parental
# Outline: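 Values are % viability versus untreated wells, measured by PrestoBlue after a 72 h drug exposure. Screens covered the parental line plus sublines rendered resistant to Vemurafenib or Dabrafenib, each analysed in at least duplicate.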
# [2] = system: IGR37 cells (parental); settings: IGR37 Parental
# [3] = system: 501Mel-XP cells (Vemurafenib-resistant); settings: 501Mel XP
# [4] = system: A375-XP cells (Vemurafenib-resistant); settings: A375 XP
# [5] = system: IGR37-XP cells (Vemurafenib-resistant); settings: IGR37 XP
# [6] = system: A375-GP cells (Dabrafenib-resistant); settings: A375 GP
# [7] = system: 501Mel-GP cells (Dabrafenib-resistant); settings: 501Mel GP
# [8] = system: IGR37-GP cells (Dabrafenib-resistant); settings: IGR37 GP
# [9] = system: A375 cells (parental); settings: A375 Parental
structure (smiles),measurement,setting,value
Nc1ccc(-c2ccc3ncc4ccc(=O)n(-c5cccc(C(F)(F)F)c5)c4c3c2)cn1 [Torin 2],"Cell viability in kinase inhibitor library screening, 501Mel Parental, 1μΜ","[1]; 1μΜ, 72 h, in %",5.6
same,"Cell viability in kinase inhibitor library screening, 501Mel Parental, 10μΜ","[1]; 10μΜ, 72 h, in %",0.8
same,"Cell viability in kinase inhibitor library screening, IGR37 Parental, 1μΜ","[2]; 1μΜ, 72 h, in %",13.2
same,"Cell viability in kinase inhibitor library screening, IGR37 Parental, 10μΜ","[2]; 10μΜ, 72 h, in %",0.851
same,"Cell viability in kinase inhibitor library screening, 501Mel XP, 1μΜ","[3]; 1μΜ, 72 h, in %",3.5
same,"Cell viability in kinase inhibitor library screening, 501Mel XP, 10μΜ","[3]; 10μΜ, 72 h, in %",0.164
same,"Cell viability in kinase inhibitor library screening, A375 XP, 1μΜ","[4]; 1μΜ, 72 h",12.1
same,"Cell viability in kinase inhibitor library screening, A375 XP, 10μΜ","[4]; 10μΜ, 72 h",2.9
same,"Cell viability in kinase inhibitor library screening, IGR37 XP, 10μΜ","[5]; 10μΜ, 72 h",1.3%
same,"Cell viability in kinase inhibitor library screening, IGR37 XP, 1μΜ","[5]; 1μΜ, 72 h, in %",14.1
same,"Cell viability in kinase inhibitor library screening, A375 GP, 1μΜ","[6]; 1μΜ, 72 h",7.9
same,"Cell viability in kinase inhibitor library screening, A375 GP, 10μΜ","[6]; 10μΜ, 72 h",4.0
same,"Cell viability in kinase inhibitor library screening, 501Mel GP, 1μΜ","[7]; 1μΜ, 72 h, in %",10.9
same,"Cell viability in kinase inhibitor library screening, 501Mel GP, 10μΜ","[7]; 10μΜ, 72 h, in %",0.7
same,"Cell viability in kinase inhibitor library screening, IGR37 GP, 10μΜ","[8]; 10μΜ, 72 h",2.7%
same,"Cell viability in kinase inhibitor library screening, IGR37 GP, 1μΜ","[8]; 1μΜ, 72 h, in %",20.7
same,"Cell viability in kinase inhibitor library screening, A375 Parental, 10μΜ","[9]; 10μΜ, 72 h",3.6
same,"Cell viability in kinase inhibitor library screening, A375 Parental, 1μΜ","[9]; 1μΜ, 72 h",10.7
CC(C)(C)c1cc(/C=C(\C#N)C(N)=S)cc(C(C)(C)C)c1O [Tyrphostin AG 879 (AG 879)],"cell viability, 501Mel Parental, 1μΜ","[1]; 1μΜ, 72 h, in %",115.0
same,"cell viability, 501Mel Parental, 10μΜ","[1]; 10μΜ, 72 h, in %",44.8
same,"cell viability, IGR37 Parental, 10μΜ","[2]; 10μΜ, 72 h, in %",83.4
same,"cell viability, 501Mel XP, 1μΜ","[3]; 1μΜ, 72 h, in %",98.6
same,"cell viability, 501Mel XP, 10μΜ","[3]; 10μΜ, 72 h, in %",18.3
same,"cell viability, A375 XP, 1μΜ","[4]; 1μΜ, 72 h, in %",105.8
same,"cell viability, A375 XP, 10μΜ","[4]; 10μΜ, 72 h, in %",24.1
same,"cell viability, IGR37 XP, 10μΜ","[5]; 10μΜ, 72 h",21.5%
same,"cell viability, IGR37 XP, 1μΜ","[5]; 1μΜ, 72 h, in %",90.9
same,"cell viability, A375 GP, 10μΜ","[6]; 10μΜ, 72 h, in %",19.7
same,"cell viability, 501Mel GP, 1μΜ","[7]; 1μΜ, 72 h, in %",110.4
same,"cell viability, 501Mel GP, 10μΜ","[7]; 10μΜ, 72 h, in %",23.6
same,"cell viability, IGR37 GP, 10μΜ","[8]; 10μΜ, 72 h",60.1%
same,"cell viability, A375 Parental, 1μΜ","[9]; 1μΜ, 72 h, in %",103.1
same,"cell viability, A375 Parental, 10μΜ","[9]; 10μΜ, 72 h, in %",21.0
CCO.N#CC(=C(/N)Sc1ccccc1N)/C(C#N)=C(\N)Sc1ccccc1N [U0126-EtOH],"cell viability, 501Mel Parental, 1μΜ","[1]; 1μΜ, 72 h, in %",94.5
same,"cell viability, 501Mel Parental, 10μΜ","[1]; 10μΜ, 72 h, in %",65.9
same,"cell viability, IGR37 Parental, 10μΜ","[2]; 10μΜ, 72 h, in %",35.1
same,"cell viability, 501Mel XP, 1μΜ","[3]; 1μΜ, 72 h, in %",86.9
same,"cell viability, 501Mel XP, 10μΜ","[3]; 10μΜ, 72 h, in %",62.2
same,"cell viability, A375 XP, 1μΜ","[4]; 1μΜ, 72 h, in %",94.5
same,"cell viability, A375 XP, 10μΜ","[4]; 10μΜ, 72 h, in %",60.2
same,"cell viability, IGR37 XP, 10μΜ","[5]; 10μΜ, 72 h",45.1%
same,"cell viability, IGR37 XP, 1μΜ","[5]; 1μΜ, 72 h, in %",92.3
same,"cell viability, A375 GP, 1μΜ","[6]; 1μΜ, 72 h, in %",93.9
same,"cell viability, A375 GP, 10μΜ","[6]; 10μΜ, 72 h, in %",64.5
same,"cell viability, 501Mel GP, 1μΜ","[7]; 1μΜ, 72 h, in %",105.2
same,"cell viability, 501Mel GP, 10μΜ","[7]; 10μΜ, 72 h, in %",75.1
same,"cell viability, IGR37 GP, 10μΜ","[8]; 10μΜ, 72 h",83.5%
same,"cell viability, IGR37 GP, 1μΜ","[8]; 1μΜ, 72 h, in %",93.8
same,"cell viability, A375 Parental, 1μΜ","[9]; 1μΜ, 72 h, in %",100.1
same,"cell viability, A375 Parental, 10μΜ","[9]; 10μΜ, 72 h, in %",39.4
"Cc1cc(Nc2cc(N3CCN(C)CC3)nc(Sc3ccc(NC(=O)C4CC4)cc3)n2)n[nH]1 [VX-680 (MK-0457, Tozasertib)]",cell viability (kinase inhibitor library screening),"[1]; 1μΜ, 72 h",85.5%
same,cell viability (kinase inhibitor library screening),"[1]; 10μΜ, 72 h",48.7%
same,cell viability (kinase inhibitor library screening),"[2]; 1μΜ, 72 h",89.0%
same,cell viability (kinase inhibitor library screening),"[2]; 10μΜ, 72 h",63.5%
same,cell viability (kinase inhibitor library screening),"[3]; 1μΜ, 72 h",74.1%
same,cell viability (kinase inhibitor library screening),"[3]; 10μΜ, 72 h",26.8%
same,cell viability (kinase inhibitor library screening),"[4]; 1μΜ, 72 h",56.4%
same,cell viability (kinase inhibitor library screening),"[4]; 10μΜ, 72 h",35.5%
same,cell viability (kinase inhibitor library screening),"[5]; 10μΜ, 72 h",3.9%
same,cell viability (kinase inhibitor library screening),"[6]; 1μΜ, 72 h",45.1%
same,cell viability (kinase inhibitor library screening),"[6]; 10μΜ, 72 h",30.5%
same,cell viability (kinase inhibitor library screening),"[7]; 1μΜ, 72 h",85.8%
same,cell viability (kinase inhibitor library screening),"[7]; 10μΜ, 72 h",48.3%
same,cell viability (kinase inhibitor library screening),"[8]; 1μΜ, 72 h",94.7%
same,cell viability (kinase inhibitor library screening),"[8]; 10μΜ, 72 h",11.6%
same,cell viability (kinase inhibitor library screening),"[9]; 10μΜ, 72 h",26.3%
same,cell viability (kinase inhibitor library screening),"[9]; 1μΜ, 72 h",47.5%
NC(=O)c1ccc(N(C(N)=O)c2c(F)cccc2F)nc1-c1ccc(F)cc1F [VX-702],"Cell viability in kinase inhibitor library screening, 501Mel Parental, 10μΜ","[1]; 10μΜ, 72 h, in %",97.1
same,"Cell viability in kinase inhibitor library screening, IGR37 Parental, 10μΜ","[2]; 10μΜ, 72 h, in %",103.3
same,"Cell viability in kinase inhibitor library screening, 501Mel XP, 1μΜ","[3]; 1μΜ, 72 h, in %",91.5
same,"Cell viability in kinase inhibitor library screening, 501Mel XP, 10μΜ","[3]; 10μΜ, 72 h, in %",83.4
same,"Cell viability in kinase inhibitor library screening, A375 XP, 1μΜ","[4]; 1μΜ, 72 h",104.7
same,"Cell viability in kinase inhibitor library screening, A375 XP, 10μΜ","[4]; 10μΜ, 72 h",104.6
same,"Cell viability in kinase inhibitor library screening, IGR37 XP, 10μΜ","[5]; 10μΜ, 72 h",76.8%
same,"Cell viability in kinase inhibitor library screening, A375 GP, 10μΜ","[6]; 10μΜ, 72 h",97.2
same,"Cell viability in kinase inhibitor library screening, 501Mel GP, 1μΜ","[7]; 1μΜ, 72 h, in %",99.8
same,"Cell viability in kinase inhibitor library screening, 501Mel GP, 10μΜ","[7]; 10μΜ, 72 h, in %",87.7
same,"Cell viability in kinase inhibitor library screening, IGR37 GP, 10μΜ","[8]; 10μΜ, 72 h",93.6%
same,"Cell viability in kinase inhibitor library screening, IGR37 GP, 1μΜ","[8]; 1μΜ, 72 h, in %",98.3
same,"Cell viability in kinase inhibitor library screening, A375 Parental, 10μΜ","[9]; 10μΜ, 72 h",90.0
same,"Cell viability in kinase inhibitor library screening, A375 Parental, 1μΜ","[9]; 1μΜ, 72 h",102.7
COc1cc2/c(=N/c3ccc(Br)cc3F)nc[nH]c2cc1OCC1CCN(C)CC1 [Vandetanib (Zactima)],cell viability (kinase inhibitor library screening),"[1]; 1μΜ, in %",98.8
same,cell viability (kinase inhibitor library screening),"[1]; 10μΜ, in %",0.4
same,cell viability (kinase inhibitor library screening),"[2]; 1μΜ, in %",96.5
same,cell viability (kinase inhibitor library screening),"[2]; 10μΜ, in %",11.2
same,cell viability (kinase inhibitor library screening),"[3]; 1μΜ, in %",89.6
same,cell viability (kinase inhibitor library screening),"[3]; 10μΜ, in %",-0.445
same,cell viability (kinase inhibitor library screening),"[4]; 1μΜ, in %",103.0
same,cell viability (kinase inhibitor library screening),"[4]; 10μΜ, in %",39.3
same,cell viability (kinase inhibitor library screening),"[5]; 1μΜ, in %",94.5
same,cell viability (kinase inhibitor library screening),"[5]; 10μΜ, in %",3.2
same,cell viability (kinase inhibitor library screening),"[6]; 1μΜ, in %",98.8
same,cell viability (kinase inhibitor library screening),"[6]; 10μΜ, in %",19.2
same,cell viability (kinase inhibitor library screening),"[7]; 10μΜ, in %",0.0201
same,cell viability (kinase inhibitor library screening),"[8]; 1μΜ, in %",93.4
same,cell viability (kinase inhibitor library screening),"[8]; 10μΜ, in %",31.3
same,cell viability (kinase inhibitor library screening),"[9]; 1μΜ, in %",98.6
same,cell viability (kinase inhibitor library screening),"[9]; 10μΜ, in %",48.0
Cl.Cl.Clc1ccc(Nc2nnc(Cc3ccncc3)c3ccccc23)cc1 [Vatalanib dihydrochloride (PTK787)],cell viability (kinase inhibitor library screening),"[1]; 1μΜ, in %",98.6
same,cell viability (kinase inhibitor library screening),"[1]; 10μΜ, in %",93.0
same,cell viability (kinase inhibitor library screening),"[2]; 1μΜ, in %",118.3
same,cell viability (kinase inhibitor library screening),"[2]; 10μΜ, in %",92.4
same,cell viability (kinase inhibitor library screening),"[3]; 1μΜ, in %",94.6
same,cell viability (kinase inhibitor library screening),"[3]; 10μΜ, in %",73.0
same,cell viability (kinase inhibitor library screening),"[4]; 10μΜ, in %",99.5
same,cell viability (kinase inhibitor library screening),"[5]; 10μΜ, in %",58.7
same,cell viability (kinase inhibitor library screening),"[6]; 1μΜ, in %",96.3
same,cell viability (kinase inhibitor library screening),"[6]; 10μΜ, in %",92.3
same,cell viability (kinase inhibitor library screening),"[7]; 1μΜ, in %",106.0
same,cell viability (kinase inhibitor library screening),"[7]; 10μΜ, in %",81.7
same,cell viability (kinase inhibitor library screening),"[8]; 1μΜ, in %",95.0
same,cell viability (kinase inhibitor library screening),"[8]; 10μΜ, in %",83.6
same,cell viability (kinase inhibitor library screening),"[9]; 1μΜ, in %",105.1
same,cell viability (kinase inhibitor library screening),"[9]; 10μΜ, in %",92.8
